Results from patent publication US20030180947A1, “Circadian control of stem/progenitor cell self-renewal and differentiation and of clock controlled gene expression” (priority 2001, published 2003).
Entries after “also recorded” stand apart in the source; their conditions may differ.

B1: mRBT1C76 fused to the GAL4 activation domain (pGADT7-mRBT1C76) (other, UniProt P04386 768-881, looked up)
chain: ANFNQSGNIADSSLSFTFTNSSNGPNLITTQTNSQALSQPIASSNVHDNFMNNEITASKIDDGNNSKPLSPGWTDQTAYNAFGITTGMFNTTTMDDVYNYLFDDEDTPPNPKKEPQNEIVSQADPVFLEALSSRYLGDSGLDDFFLDIDTSAVEKDVALPPPEPPHSLFCSPGSWEWNELDHIMEIILGS
notes: Yeast two-hybrid construct; also called C-terminal 76 amino acids of mRBT1

Tests used:
mper1 promoter = experiment: Per1-luciferase reporter (pGL3-mPer1-7.2 kb) in transfected NIH 3T3 cells; type: cell-based, mouse; details: NIH 3T3, pGL3-mPer1-7.2 kb; 10^−6 M; 7 hours; FIG. 14
Text: FIG. 14 is a bar graph illustrating the effects of neurotransmitter analog treatment on NIH 3T3 cells transfected with pGL3-mPer1-7.2kb, which contains luciferase under control of a 7.2 kb region of the mper1 promoter. Cells were exposed to 10^−6 M forskolin as a positive control, 10^−6 M isoproterenol (a beta-adrenergic agonist), 10^−6 M propranolol (a beta-adrenergic antagonist), 10^−6 M phenylephrine (an alpha-adrenergic agonist), and 10^−6 M pentolamine (an alpha-adrenergic antagonist) for 7 hours.
H1299 cells were maintained in RPMI1640 (Gibco) with 10% FBS (Hyclone). NIH3T3 cells were maintained in DMEM (Gibco) with 10% FBS (Hyclone). The day before transfection, 3×10^5 cells/well were plated onto six-well plates. Cells were transfected with 500 ng of each expression plasmid, 100 ng of the firefly luciferase reporter construct and 2 ng of the Renilla luciferase control plasmid (pRL-SV40; Promega) using SuperFect transfection reagent (Qiagen) following the manufacturer's instructions. The Renilla luciferase control plasmid was cotrasfected to normalize transfection efficiency. When expression plasmids were omitted, same amount of the pcDNA3 plasmid was used to substitute the expression plasmids. Forty hours after transfection, cells were washed once with 1×PBS (Sigma) and lysed with 500 μl of passive lysis buffer (Promega). Luciferase activity of the cell lysate was assayed with the Dual-Luciferase Reporter Assay System (Promega) using a luminometer (Optocomp1; MGM Instruments) as recommended by the manufacturer.
A Per1-luciferase reporter plasmid was constructed essentially as described above, using a 7.2 kb fragment of the promoter region from mper1, forming pGL3-mPer1-7.2 kb. NIH 3T3 cells were transfected with pGL3-mPer1-7.2 kb as described above and cells were exposed to 10^−6 M forskolin as a positive control, 10^−6 M isoproterenol (a beta-adrenergic agonist), 10^−6 M propranolol (a beta-adrenergic antogonist), 10^−6 M phenylephrine (an alpha-adrenergic agonist), and 10^−6 M pentolamine (an alpha-adrenergic antagonist). Cells were exposed to the neurotransmitters for 7 hours and luciferase activity was measured as described above.

[1] = system: mPer1 expression in the lin− cells; experiment: Effect on mPer1 expression in lin− bone marrow cells (relative quantitative RT-PCR); type: cell-based, mouse; details: 200 nM dexamethasone or 1 μM PMA, 1 or 2 hours, vs ethanol control
Method: (§1) Bone marrow cells were incubated with ACK lysing buffer (0.15M NH4Cl, 1 mM KHCO3 and 0.1 mM Na2EDTA; pH7.2) at room temperature for 4 minutes to remove red blood cells. The lin^− (lineage marker-negative) bone marrow cells were obtained by depleting lineage marker-positive cells using the MACS magnetic separation system (Miltenyi Biotec, Auburn, Calif.) according to the manufacturer's instructions. The antibodies used were PE-labeled rat anti-mouse Gr-1, TER119, B220, CD4, CD8, and Mac-1 monoclonal antibodies (all from BD PharMingen, San Diego, Calif.). Briefly, the cells were incubated with the antibody cocktail for the lineage markers described above at 6-10° C. for 15 minutes. After two washes with 1×phosphate-buffered saline (PBS; Sigma, St. Louis, Mo.) supplemented with 0.5% FBS (Hyclone), the cells were incubated with anti-PE antibody-coated magnetic beads (Miltenyi Biotec) at 6-10° C. for 15 minutes. […]
(§2) For each RT-PCR experiment, samples from six time points were analyzed at the same time. […]
(§3) Within each PCR experiment, the linear range of amplification was first determined using cDNA pooled from 6 time points. […]
(§4) As a negative control, the products of the RT reactions, without reverse transcriptase, were subjected to the same PCR amplification. […] Their relative quantities were determined by using the Image-Pro Plus software (Media Cybernetics). […]

[2] = system: mPer2 expression in the lin− cells; experiment: Effect on mPer2 expression in lin− bone marrow cells (relative quantitative RT-PCR); type: cell-based, mouse; details: 200 nM dexamethasone or 1 μM PMA, 1 or 2 hours, vs ethanol control
Method: as §1, §2, §3, §4

Rat-1 fibroblasts = details: cultured Rat-1 fibroblasts; Balsalobre et al. 2000; cited from earlier work
[3] = target: T1, mLATS2 fused to the GAL4 DNA binding domain (pGBKT7-mLATS2) (mouse, UniProt P04386 1-147; Q7TSJ6 1-1042); experiment: yeast two-hybrid assay
T1 construct: Yeast two-hybrid construct made by inserting the Bsm I-Xho I fragment of pcDNA3-mLATS2 into pGBKT7-mLATS2b; also called mLATS2/2b

Molecule | expression levels relative to the forskolin positive control (mper1 promoter) | luciferase activity relative to control (mper1 promoter) | further results
CC(C)NCC(O)c1ccc(O)c(O)c1 (stereo not shown) [isoproterenol] | slightly diminished | increased luciferase activity | –
CNC[C@H](O)c1cccc(O)c1 [phenylephrine] | slightly diminished | increased luciferase activity | –
CCCCCCCCCCCCCC(=O)O[C@@H]1[C@@H](C)[C@@]2(O)[C@@H](C=C(CO)C[C@]3(O)C(=O)C(C)=C[C@@H]23)[C@@H]2C(C)(C)[C@]12OC(C)=O [PMA, phorbol-12-myristate-13-acetate] | – | – | mPer1 expression [1]: not affected; mPer2 expression [2]: neither dexamethasone nor PMA had a significant effect; Per1 induction and circadian gene expression (Rat-1 fibroblasts): induce mPer1 expression and elicit circadian gene expression; also recorded: induce immediate Per1 up-regulation and trigger circadian expression
Cc1ccc(N(CC2=NCCN2)c2cccc(O)c2)cc1 [pentolamine] | slightly diminished | increased luciferase activity | –
B1 | – | – | binding result [3]: no binding
